# Test results: patent US8334316B2, “Substituted organosulfur compounds and methods of using thereof” (ACEA Biosciences, Inc., priority 2004, dated 2012)
# Where “and” joins values, the source holds several entries; their conditions need not be identical. Identical values can stand only once.
# Assays:
# [1] = tested on: mouse sarcoma S180; experiment: In vivo antitumor efficacy, mouse sarcoma S180 model (subcutaneously transplanted), Example 1
# [2] = tested on: mouse Lewis lung cancer; experiment: In vivo antitumor efficacy, mouse Lewis lung cancer model (subcutaneously transplanted), Example 1
# Description: Test controls. For the negative control, two groups were set up: the solvent only control group and normal saline control group. […] In the normal saline group, each mouse was administered with 0.5 ml of normal saline, once per day and for 7 or 10 consecutive days. For the positive control group, the anticancer compound, cyclophosphamide (CTX) was administered intraperitoneally at 30 mg/kg, once per day and for 7 or 10 consecutive days.
# In the mouse Lewis lung cancer model, 200 mg of DBTS was dissolved in 5 mL castor oil (in polyoxyethlated version). […] The intravenous injection speed was about 0.5 mL/0.5 min.
# The dosages and administration of test compounds are within the knowledge of those commonly skilled in pharmacology. For example, the test compounds may be administered by intravenous injection with a test compound solution twice per day and for 7 consecutive days. Alternatively, the test compounds may be administered by intravenous injection with a test compound solution once per day and for 10 consecutive days.
# 0.2 mL of the tumor cell suspension (between 4 and 8 million tumor cells) was then transplanted back into an experimental mouse by subcutaneous injection. […] Each removed solid tumor was weighted, and the tumor inhibition rate in the DBTS-treated groups and in the CTX-treated group was calculated according to the formula: Tumor inhibition rate %=(average weight of tumor in the negative control group−average weight of tumor in the compound treated group)/average weight of tumor in the negative control group×100 (2)
# For the mouse Lewis lung cancer model, the Lewis lung cancer cells were subcutaneously transplanted at approximately 5 million cells per mouse. After 24 hours of the transplantation, each mouse in the test group was administered intravenously with dibenzyl trisulfide at 50, 25, or 12.5 mg/kg per day and for 10 consecutive days. For the positive control group, each mouse was administered with CTX at […] intraperitoneally per day and for 10 consecutive days. For the negative control group, each mouse was administered intravenously either with normal saline, or with the solvent for dibenzyl trisulfide at the same concentration as that in the test group per day and for consecutive 10 days. For each group, 10 mice were used.
# [3] = tested on: human cancer cell lines (H460, MV522, MCF7, A549, PC3, A431, HT1080, MDA-231, HT29, HCC2998, OVCAR4, A2780); experiment: RT-CES system, panel of human cancer cell lines treated with dibenzyl trisulfide; assay type: cell-based; conditions: 1.5625-100 μM; FIGS. 1-5, 6A, 7-12
# Source text: The RT-CES system comprises three components, an electronic sensor analyzer, a device station and 16× or 96× microtiter plate devices. Microelectrode sensor array was fabricated on glass slides with lithographical microfabrication methods and the electrode-containing slides are assembled to plastic trays to form electrode-containing wells. Each 16× (or 96×) microtiter plate device used in RT-CES system comprises up to 16 (or 96) such electrode-containing wells. The device station receives the 16× or 96× microtiter plate devices and is capable of electronically switching any one of the wells to the sensor analyzer for impedance measurement. […] Under the RT-CES software control, the sensor analyzer can automatically select wells to be measured and continuously conduct impedance measurements. The impedance data from the analyzer is transferred to a computer, analyzed and processed by the integrated software.
# To quantify cell status based on the measured cell-electrode impedance, a parameter termed Cell Index is derived, according to
# [formula] where Rb(f) and Rcell(f) are the frequency dependent electrode resistances (a component of impedance) without cells or with cell present, respectively. N is the number of the frequency points at which the impedance is measured. Thus, Cell Index is a quantitative measure of the status of the cells in an electrode-containing well. […]
compound,measurement,setting,value
"c1ccc(CSSSCc2ccccc2)cc1 [DBTS, Dibenzyl trisulfide]",Animal weight (g) end,[1]; 12.5 mg/kg/d iv x7 qd,24.5 g
same,Inhibition rate (%),"[1]; 12.5 mg/kg/d iv x7 qd, vs 10% solvent control",30.46%
same,Inhibition rate (%),"[1]; 12.5 mg/kg/d iv x7 qd, vs normal saline control",48.69%
same,Inhibition rate (%),"[1]; 25 mg/kg/d iv x7 qd, vs 10% solvent control",38.58%
same,Inhibition rate (%),"[1]; 25 mg/kg/d iv x7 qd, vs normal saline control",54.68%
same,Inhibition rate (%),"[1]; 50 mg/kg/d iv x7 qd, vs 10% solvent control",50.25%
same,Inhibition rate (%),"[1]; 50 mg/kg/d iv x7 qd, vs normal saline control",63.30% and 65%
same,Inhibition rate (%),"[2]; 12.5 mg/kg/d iv x10 qd, vs 5% solvent control",37.38% and 37.28%
same,Inhibition rate (%),"[2]; 12.5 mg/kg/d iv x10 qd, vs normal saline control",45.21%
same,Inhibition rate (%),"[2]; 25 mg/kg/d iv x10 qd, vs 5% solvent control",44.30%
same,Inhibition rate (%),"[2]; 25 mg/kg/d iv x10 qd, vs normal saline control",51.34%
same,Inhibition rate (%),"[2]; 50 mg/kg/d iv x10 qd, vs 5% solvent control",62.28%
same,Inhibition rate (%),"[2]; 50 mg/kg/d iv x10 qd, vs normal saline control",67.05% and 65%
same,Effect on proliferation of cancer cell lines (time-dependent cell index),[3],exhibited inhibitory effect on the proliferation of a number of cancer cell lines
